Reference: US7214495B2, “Screening method” (Takeda Pharmaceutical Company Limited, priority 2002, dated 2007)

Key:
Rat GPR40 = target: T1, Rat GPR40 (Rattus norvegicus, UniProt Q8K3T4); assay: EC50 by FLIPR calcium assay in CHO cells stably expressing rat GPR40; format: cell-based; details: intracellular calcium, FLIPR, stable CHO line; read-out: EC50 Rat GPR40
T1 construct: expressed in transfected cells

MIN6 cells = assay: FLIPR intracellular calcium assay using MIN6; format: cell-based, mouse; details: 10 μM fatty acid
Experimental: Mouse pancreatic β cell line MIN6 incubated in a flask was scraped using PBS containing 2.5 mM EDTA and diluted so as to contain 3×10^5 cells/1 mL of the medium. The dilution was dispensed in a Black welled 96-well plate (Coster) in 100 μL/well, followed by incubation in a CO2 incubator for 2 days. The medium used was 4.5 g/l of glucose-containing Dulbecco's Modified Eagle Medium (DMEM, Invitrogen, Inc.) supplemented with 15% fetal calf serum (ThermoTrace, Inc.), 5.5 μM 2-mercaptethanol (Invitrogen, Inc.), 20 mM HEPES pH 7.3, 100 U/ml penicillin and 100 μg/ml streptomycin. To the thus prepared MIN6 cells, various fatty acids (10 μM) were added and the changes in intracellular calcium level in this case were measured using FLIPR (Molecular Device). The changes in the intracellular calcium ion level on FLIPR were assayed in accordance with the procedures described in EXAMPLE 24.

Mouse GPR40 = target: T2, Mouse GPR40 (Mus musculus, UniProt Q76JU9); assay: EC50 by FLIPR calcium assay in CHO cells stably expressing mouse GPR40; format: cell-based; details: intracellular calcium, FLIPR, stable CHO line; read-out: EC50 Mouse GPR40
T2 construct: expressed in transfected cells
T2 sequence (Q76JU9 whole entry): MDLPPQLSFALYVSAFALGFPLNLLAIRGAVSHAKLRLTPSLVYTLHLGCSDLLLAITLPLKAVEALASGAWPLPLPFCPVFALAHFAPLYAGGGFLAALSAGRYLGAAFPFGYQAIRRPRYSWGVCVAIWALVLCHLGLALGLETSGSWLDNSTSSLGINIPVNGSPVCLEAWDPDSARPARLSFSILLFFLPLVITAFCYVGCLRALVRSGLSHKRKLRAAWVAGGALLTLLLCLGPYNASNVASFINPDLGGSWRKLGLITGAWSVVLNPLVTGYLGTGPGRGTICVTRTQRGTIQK

human GPR40 = target: T3, human GPR40 (Homo sapiens, UniProt O14842); assay: cAMP production in human GPR40-expressed CHO cells; format: cell-based; details: 10 minutes; for cAMP production activity, presence of forskolin: 2 μM forskolin
T3 construct: The resulting fragment (ca. 1 kb) was introduced into vector pAKKO-111, which was used for transfection of CHO cells; expressed in transfected cells
T3 sequence (O14842 whole entry, the tested form may be a part): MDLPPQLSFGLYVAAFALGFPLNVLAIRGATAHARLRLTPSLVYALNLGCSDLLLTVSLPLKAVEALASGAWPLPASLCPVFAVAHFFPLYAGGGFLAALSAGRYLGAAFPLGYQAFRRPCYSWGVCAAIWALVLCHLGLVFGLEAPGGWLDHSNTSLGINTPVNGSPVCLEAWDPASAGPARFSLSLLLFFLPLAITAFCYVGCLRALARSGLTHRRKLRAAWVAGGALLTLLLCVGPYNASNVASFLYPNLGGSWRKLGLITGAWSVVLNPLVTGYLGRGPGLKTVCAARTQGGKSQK
Experimental: Human and mouse GPR40-expressed CHO cells were incubated for 20 hours in a 96-well Plate at a density of 1×10^5/well. After the cells were washed twice with 100 μl of Assay Buffer (DMEM (Invitrogen) containing 0.1 mM IBMX (Wako Pure Chemical) and 0.1 mM Ro-20-1724 (Biomol)), DHA, solutions of linoleic acid and […] (both by SIGMA) in Assay Buffer in the presence or absence of 2 μM forskolin (Wako Pure Chemical) were added to the cells, followed by reacting at 37° C. for 10 minutes. After the reaction, the cells were lysed in accordance with the formulation of cAMP Screen (ABI) and the cAMP level in the cells was assayed.

T1 sequence (Q8K3T4 whole entry): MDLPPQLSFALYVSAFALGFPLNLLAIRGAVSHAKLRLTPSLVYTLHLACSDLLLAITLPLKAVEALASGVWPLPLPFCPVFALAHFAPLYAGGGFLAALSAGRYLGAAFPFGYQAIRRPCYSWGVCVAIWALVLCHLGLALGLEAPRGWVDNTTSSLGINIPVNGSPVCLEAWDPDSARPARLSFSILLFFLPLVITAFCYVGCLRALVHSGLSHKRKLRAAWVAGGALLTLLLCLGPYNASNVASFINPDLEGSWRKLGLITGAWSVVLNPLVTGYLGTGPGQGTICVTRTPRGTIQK

SMILES	EC50 (Rat GPR40) [µM]	EC50 (Mouse GPR40) [µM]	cAMP production activity, presence of forskolin (human GPR40)	intracellular Ca^2+ level in MIN6 (MIN6 cells)	cAMP production activity, absence of forskolin (human GPR40)
CC/C=C\C/C=C\C/C=C\C/C=C\C/C=C\C/C=C\CCC(=O)O [Docosahexaenoic acid (C22:6), 4Z,7Z,10Z,13Z,16Z,19Z-docosahexaenoic acid]	13 ± 1.7	16 ± 4.7	weakly shown	increased	did not show any cAMP production activity
CCCCCCCC/C=C\CCCCCCCC(=O)O [Oleic acid (C18:1), Oleic acid]	3.4 ± 0.4	2.7 ± 0.5	–	increased	–

More lines, main results first:

EC50 (Rat GPR40) [µM]	EC50 (Mouse GPR40) [µM]	cAMP production activity, presence of forskolin (human GPR40)	SMILES	intracellular Ca^2+ level in MIN6 (MIN6 cells)	cAMP production activity, absence of forskolin (human GPR40)
8 ± 0.6	5.4 ± 0.8	–	CCCCC/C=C\C/C=C\C/C=C\C/C=C\CCCC(=O)O [Arachidonic acid (C20:4), Arachidonic acid]	increased	–
4.1 ± 0.5	2.9 ± 0.3	weakly shown	CCCCC/C=C\C/C=C\CCCCCCCC(=O)O [Linoleic acid (C18:2), Linoleic acid]	increased	did not show any cAMP production activity
5.4 ± 1.1	5.2 ± 0.6	weakly shown	CCCCC/C=C\C/C=C\C/C=C\CCCCC(=O)O [γ-Linolenic acid (C18:3), γ-Linolenic acid]	increased	did not show any cAMP production activity
